ChEMBL document CHEMBL5321295, “Targeted Degradation of Alpha-Synuclein by Autophagosome-Anchoring Chimera Peptides” (J Med Chem, 2023)
Active and inactive are the calls of the source. The calls are words filed in the database; no cut-off is given here.

Key:
[1] = target: T1, Microtubule-associated protein 1 light chain 3 beta (Homo sapiens, UniProt Q9GZQ8); assay: (§1) Induction of LC3B-mediated autophagy flux in HEK293T cells overexpressing alpha-synuclein (unknown origin) cotransfected with adenovirus-packaged plasmid encoding mCherry-EGFP-fused LC3B assessed as increase in number of autolysosomes incubated for 4 hrs by confocal laser scanning microscopy; format: cell-based; conditions: dose <= 100.0 µM
Alpha-synuclein [2] = target: T2, Alpha-synuclein (Homo sapiens, UniProt P37840); assay: Binding affinity to biotinylated recombinant alpha-synuclein (unknown origin) assessed as dissociation constant by BLI assay
HEK-293T [3] = assay: Cytotoxicity against wild-type HEK293T cells assessed as cell viability upto 200 uM incubated for 24 hrs by CCK8 assay; format: toxicity, cell-based; conditions: human
HEK-293T [4] = assay: Downregulation of NACA expression in HEK293T cells at 100 uM incubated for 24 hrs by proteomic profiling analysis; format: functional, cell-based; conditions: Homo sapiens
HEK-293T [5] = assay: Downregulation of UBE2L3 expression in HEK293T cells at 100 uM incubated for 24 hrs by proteomic profiling analysis; format: functional, cell-based; conditions: Homo sapiens
HEK-293T [6] = assay: Downregulation of SMAP expression in HEK293T cells at 100 uM incubated for 24 hrs by proteomic profiling analysis; format: functional, cell-based; conditions: Homo sapiens
HEK-293T [7] = assay: Downregulation of AKR1B1 expression in HEK293T cells at 100 uM incubated for 24 hrs by proteomic profiling analysis; format: functional, cell-based; conditions: Homo sapiens
HEK-293T [8] = assay: Downregulation of EIF2S1 expression in HEK293T cells at 100 uM incubated for 24 hrs by proteomic profiling analysis; format: functional, cell-based; conditions: Homo sapiens
HEK-293T [9] = assay: Downregulation of SLC25A3 expression in HEK293T cells at 100 uM incubated for 24 hrs by proteomic profiling analysis; format: functional, cell-based; conditions: Homo sapiens
HEK-293T [10] = assay: Downregulation of DLST expression in HEK293T cells at 100 uM incubated for 24 hrs by proteomic profiling analysis; format: functional, cell-based; conditions: Homo sapiens
[11] = Drug localization in HEK293T cells overexpressing mCherry-fused alpha-synuclein (unknown origin) assessed as colocalization of autophagosomes at 50 uM incubated for 2 hrs by MDC staining based confocal laser scanning microscopy; format: ADME, cell-based; conditions: human, hek-293t
[12] = Drug localization in HEK293T cells overexpressing mCherry-fused alpha-synuclein (unknown origin) assessed as colocalization of lysosomes at 50 uM incubated for 2 hrs by LyTG staining based confocal laser scanning microscopy; format: ADME, cell-based; conditions: human, hek-293t
Alpha-synuclein [13] = target: T2, Alpha-synuclein; assay: Induction of alpha-synuclein (unknown origin) degradation overexpressed in HEK293T cells with LC3B knockdown at 50 uM incubated for 24 hrs by immunoblot analysis; format: cell-based
[14] = target: T1, Microtubule-associated protein 1 light chain 3 beta; assay: as §1, with “density” for “number”, “lysosomes upto 100 uM” for “autolysosomes”, “by LyTR staining based” for “by”; format: cell-based
SH-SY5Y [15] = assay: Cytoprotective activity in human SH-SY5Y cells transfected with alpha-synuclein (unknown origin) assessed as necrotic cells at 100 uM measured after 24 hrs by […] based flow cytometry (reference value: 14.8 %); format: functional
SH-SY5Y [16] = assay: Cytoprotective activity in human SH-SY5Y cells transfected with alpha-synuclein (unknown origin) assessed as cell viability at 25 uM by CCK8 assay relative to control; format: functional; conditions: read-out: Activity
SH-SY5Y [17] = assay: Cytoprotective activity in human SH-SY5Y cells transfected with alpha-synuclein (unknown origin) assessed as cell viability at 50 uM by CCK8 assay relative to control; format: functional; conditions: read-out: Activity
SH-SY5Y [18] = assay: Cytoprotective activity in human SH-SY5Y cells assessed as increase in CCCP-induced mitochondrial membrane potential level at 100 uM measured after 24 hrs by JC-1 staining based confocal laser scanning microscopy; format: functional, cell-based
SH-SY5Y [19] = assay: Cytoprotective activity against CCCP-induced cytotoxicity in human SH-SY5Y cells assessed as cell viability at 100 uM by CCK8 assay; format: functional, cell-based
Mus musculus [20] = assay: Neuroprotective activity in MPTP-treated C57BL/6 mouse assessed as neuron viability in substantia nigra pars compacta at 50 mg/kg/day, iv treated for 5 days by Nissl staining based microscopy; format: functional, organism-based; conditions: time 5.0 day
Mus musculus [21] = assay: Downregulation of aggregated alpha-synuclein level in substantia nigra pars compacta of MPTP-treated C57BL/6 mouse at 50 mg/kg/day, iv treated for 5 days by IHC analysis; format: functional, organism-based; conditions: time 5.0 day
Mus musculus [22] = assay: Downregulation of phosphorylated alpha-synuclein at S129 residue level in substantia nigra pars compacta of MPTP-treated C57BL/6 mouse at 50 mg/kg/day, iv treated for 5 days by dot blot analysis; format: functional, organism-based; conditions: time 5.0 day
Mus musculus [23] = assay: Downregulation of total aggregated protein level in substantia nigra pars compacta of MPTP-treated C57BL/6 mouse at 50 mg/kg/day, iv treated for 5 days by ThS staining based analysis; format: functional, organism-based; conditions: time 5.0 day
Mus musculus [24] = assay: Neuroprotective activity in MPTP-induced anxiety-like status in C57BL/6 mouse assessed as increase in zone transition number of mouse track at 50 mg/kg/day, iv treated for 5 days measured after 4 days by open field test; format: functional, organism-based; conditions: time 9.0 day
Mus musculus [25] = assay: Neuroprotective activity in MPTP-induced anxiety-like status in C57BL/6 mouse assessed as increase in time spent in zone centers of mouse track at 50 mg/kg/day, iv treated for 5 days measured after 4 days by open field test; format: functional, organism-based; conditions: time 9.0 day
Mus musculus [26] = assay: Neuroprotective activity in MPTP-induced cognitive impairment in C57BL/6 mouse assessed as decrease in mean speed in navigation trial phase at 50 mg/kg/day, iv treated for 5 days measured after 5 to 8 days days by morris water maze test; format: functional, organism-based; conditions: time 10-13 day
Mus musculus [27] = assay: Neuroprotective activity in MPTP-induced cognitive impairment in C57BL/6 mouse assessed as decrease in total distance travelled in navigation trial phase at 50 mg/kg/day, iv treated for 5 days measured after 5 to 8 days days by morris water maze test; format: functional, organism-based; conditions: time 10-13 day
Mus musculus [28] = assay: Neuroprotective activity in MPTP-induced cognitive impairment in C57BL/6 mouse assessed as increase in time spent in target quadrant in probe trial phase at 50 mg/kg/day, iv treated for 5 days measured after 5 to 8 days days by morris water maze test; format: functional, organism-based; conditions: time 10-13 day
[29] = Toxicity in C57BL/6 mouse assessed as lethargy at 50 to 200 mg/kg/day treated for 5 days; format: organism-based; conditions: in vivo, 120 h, dose 50-200 mg/kg/day, time 5 day
Mus musculus [30] = assay: Neuroprotective activity in MPTP-induced cognitive impairment in C57BL/6 mouse assessed as increase in distance travelled in target quadrant in probe trial phase at 50 mg/kg/day, iv treated for 5 days measured after 5 to 8 days days by morris water maze test; format: functional, organism-based; conditions: time 10-13 day
[31] = Toxicity in C57BL/6 mouse assessed as depression in ST segment of cardiac electrophysiology at 200 mg/kg/day treated for 5 days by ECG analysis; format: organism-based; conditions: in vivo, 120 h, time 5 day
[32] = Toxicity in C57BL/6 mouse assessed as change in cardiac electrophysiology at 50 to 100 mg/kg/day treated for 5 days by ECG analysis; format: organism-based; conditions: in vivo, 120 h, dose 50-100 mg/kg/day, time 5 day
[33] = Toxicity in C57BL/6 mouse assessed as change in LDHL level at 50 to 200 mg/kg/day treated for 5 days; format: organism-based; conditions: in vivo, 120 h, dose 50-200 mg/kg/day, time 5 day
[34] = Toxicity in C57BL/6 mouse assessed as histological change in kidney at 50 to 200 mg/kg/day treated for 5 days by H and E staining based analysis; format: organism-based; conditions: in vivo, 120 h, dose 50-200 mg/kg/day, time 5 day

CC(C)C[C@H](NC(=O)[C@H](Cc1c[nH]cn1)NC(=O)[C@@H](NC(=O)[C@H](Cc1c[nH]c2ccccc12)NC(=O)[C@H](CC(=O)O)NC(=O)[C@H](CC(=O)O)NC(=O)[C@H](CC(=O)O)NC(=O)CNC(=O)CNC(=O)[C@H](CO)NC(=O)[C@H](CO)NC(=O)CNC(=O)[C@H](CO)NC(=O)CNC(=O)[C@H](CCCNC(=N)N)NC(=O)[C@@H](NC(=O)[C@H](CCCCN)NC(=O)[C@H](CO)NC(=O)CNC(=O)[C@@H](NC(=O)[C@H](Cc1ccc(O)cc1)NC(=O)[C@H](CC(C)C)NC(=O)[C@@H](NC(=O)CN)C(C)C)C(C)C)[C@H](C)O)[C@@H](C)O)C(=O)N[C@@H](CO)C(=O)N[C@@H](CO)C(=O)N[C@@H](Cc1ccc(O)cc1)C(=O)NCC(=O)N[C@@H](CCCNC(=N)N)C(=O)N[C@@H](CCCCN)C(=O)N[C@@H](CCCCN)C(=O)N[C@@H](CCCNC(=N)N)C(=O)N[C@@H](CCCNC(=N)N)C(=O)N[C@@H](CCC(N)=O)C(=O)N[C@@H](CCCNC(=N)N)C(=O)N[C@@H](CCCNC(=N)N)C(=O)N[C@@H](CCCNC(=N)N)C(=O)O
Activity [1]: Dose-Dependent Effect | Kd (Alpha-synuclein [2]): 8.83 µM | Activity (HEK-293T [3]): Non-Toxic | Activity (HEK-293T [4]): Active | Activity (HEK-293T [5]): Active | Activity (HEK-293T [6]): Active | Activity (HEK-293T [7]): Active | Activity (HEK-293T [8]): Active | Activity (HEK-293T [9]): Active | Activity (HEK-293T [10]): Active | Drug uptake [11]: Active | Drug uptake [12]: Active | Activity (Alpha-synuclein [13]): Active | Activity [14]: Active | Activity (SH-SY5Y [15]): 4.07% | viability at 25 µM (SH-SY5Y [16]): 85.6% | viability at 50 µM (SH-SY5Y [17]): 91.8% | Activity (SH-SY5Y [18]): inactive | Activity (SH-SY5Y [19]): inactive | Activity (Mus musculus [20]): Active | Activity (Mus musculus [21]): Active | Activity (Mus musculus [22]): Active | Activity (Mus musculus [23]): Active | Activity (Mus musculus [24]): Active | Activity (Mus musculus [25]): Active | Activity (Mus musculus [26]): Active | Activity (Mus musculus [27]): Active | Activity (Mus musculus [28]): Active | Activity [29]: Non-Toxic | Activity (Mus musculus [30]): Active | Activity [31]: Toxic | Activity [32]: Non-Toxic | Activity [33]: Non-Toxic | Activity [34]: Non-Toxic
